# Experimental data taken from patent US20060135569A1, “Use of benzisoselenazolone compounds against ischemic myocardial damage” (priority 2002, published 2006).
# Marks after values point to notes of the source that are not given here.
# Tests used:
# [1] = target: T1, Na^+/Ca^2+ exchanger (Cavia porcellus, UniProt P48766); experiment: Na^+/Ca^2+ exchange current (INa—Ca), whole-cell patch clamp, intracellular Na^+ overload cell model; format: cell-based, guinea pig
# T1 construct: endogenous in cells; host or cells: freshly isolated guinea pig ventricular myocytes
# Description: 1. Establishment of Assaying Method for Biphasical Current Detection in Na^+/Ca^2+ Exchange System
# Since the reverse mode of Na^+/Ca^2+ exchange process is one of the main mechanisms involving in ischemia/reperfusion insult, it is of great importance to establish cell model represented reverse mode Na^+/Ca^2+ exchange process for the development of drugs against ischemic injury. Therefore, we successfully established cell model of reverse mode Na^+/Ca^2+ exchange system by intracellular Na^+ dialysis technique, and recorded Na^+/Ca^2+ exchange currents by patch clamp experiment.
# Internal solution contained certain concentration of NaCl was filled to the microcatheter, and ion exchange process between the cellular and internal solutions was conducted after whole cell currents were recorded by patch clamp. Na^+ contained in the internal solution was dialyzed into the cell; result in the high intracellular Na^+ concentration. After that, the cell was champed at a holding potential of −40 mV, then depolarized to +60 mV and followed by a conversely declining ramp stimuli at a speed of 80 mV·s^−1 and 2 s conditioning pulse, then repolarized to −100 mV with a frequency of 0.05 Hz. Under the stimulation protocol, current from outward to the inward direction was recorded by perfusing modified biphasical Tyrode solution (in which the outward and inward currents can be recorded simultaneously) with the addition of 1 mmol·L^−1 of BaCl2 and 2 mmol·L^−1 of CsCl to block K^+ channels, 1 μmol·L^−1 of verapamil to block L-type Ca^2+ channels, and 20 μmol·L^−1 of ouabain to block Na^+/K^+ ATPase, and 20 mmol·L^−1 of TEA to block potassium channels. The recorded inward currents were presented in a linear manner owing to the blockade of other time-dependent currents. With the increase of intracellular Na^+ level and prolongation of time, the reverse mode of Na^+/Ca^2+ exchange process was activated. […] Under such experimental conditioning, the maximum reverse mode current was recorded 3 min after cell crushed. No significant “run-down” was observed within the record period of 8 minutes. The inward and outward current were inhibited by 5 mmol·L^−1 of Ni^2+ treatment, and the experiment result in two current-voltage curves in the absence or presence of Ni^2+. The Ni^2+ sensitive current, also called electrophysiological Na^+/Ca^2+ exchange current (INa·Ca), was the minus result of two current-voltage curves. The reverse mode potential of INa—Ca was about −20 mV
# Male guinea pigs weighting 250˜280 g provided by the Animal Center of the Chinese Academy of Medical Sciences were hammered and sacrificed. The chest was opened and the heart was removed quickly. Fatty tissue and pericardium were removed in a Ca^2+-free solution at 4° C., and heart was sequentially mounted on a Langendorff apparatus. First, the heart was perfused conversely via the aorta for 6 min with Ca^2+-free solution in order to wash out residual blood, then the heart expands and the color of it turns to pink. Then the heart was perfused with Ca^2+-free solution containing 0.1 mg/ml of pronase E, 0.5 mg/ml defatted bovine serum albumin (BSA) and 150 μM Ca^2+ for 2˜3 min, until the heart expanded and became soft. The atrium was removed, and the digested heart was minced with scissors, stirred in a beaker at 37° C. for 5˜10 min. The supernatant was diluted with Ca^2+-free solution containing 0.5 mg/ml BSA and 1.8 mM Ca^2+. The supernatant was placed at room temperature (20˜24° C.) for 1 hr and then subjected to the experiment. During the whole perfusion period, pressure was kept at 70 cmH2O and the temperature of solution was kept at 37° C. with continuously gassed with 95% O2 and 5% CO2.
# Rod-shaped cells with clear striations and intact membrane were used. […]
# [2] = tested on: isolated rat hearts subjected to ischemia-reperfusion (I/R); experiment: Isolated heart subjected to ischemia/reperfusion injury (arrhythmia); settings: for AAT: arrhythmic occurrence time, Time / VF (ventricular fibrillation) Incidence rate (%) / VPS (ventricular premature beats) Incidence rate (%) / VT (ventricular tachycardia) Incidence rate (%): 10^−6 M, isolated heart ischemia/reperfusion
# Protocol: Based on the pre-electrophysiological cell model screening, we have compared the inhibition ratios of the outward current by reverse-transportation of Na^+/Ca^2+ exchange, and further in vitro tests on isolated rat hearts subjected to ischemia-reperfusion (I/R) were conducted. Prolongation of ventricular arrhythmic, incidence rate of ventricular extrasystole, ventricular tachycardia/ventricular fibrillation (VT/VF) were recorded to evaluate the protective actions of drugs on myocardial injury.
# On the basis of above screening results obtained from electrophysiological studies, and the result from comparative study on the research of the inhibitory effect of compounds on reverse mode Na^+/Ca^2+ exchange process, 7 effective compounds were subjected to in vitro study. Among which, IMM-313, IMM-004 and IMM-132 have structures containing chlorine; IMM-127, IMM-128 and IMM-129 have structures containing fluorine; and IMM-065 has a structure containing OH. The experiment performed in the isolated heart subjected to ischemia/reprefusion insult. Prolongation of ventricular arrhythmic, incidence of ventricular extrasystole, ventricular tachycardia/ventricular fibrillation (VT/VF) were recorded in order to evaluate the protective actions of drugs on myocardial injury.
# [3] = tested on: TA97; TA98; TA100; TA102; experiment: Ames (mutagenesis) test, overall result in 4 strains; format: cell-based; settings: 0.5, 5, 50 and 500 μg/dish
# Protocol: (§1) To assess the mutagenic effects of 5 compounds (IMM-004; IMM-065; IMM-127; IMM-128; IMM-313), the Ames test was performed in 4 strains (TA97; TA98; TA100; TA102). The experiment was conducted with compounds at 4 concentration levels (0.5, 5, 50 and 500 μg/dish). […]
# [4] = tested on: TA97; experiment: Ames test, strain TA97; format: cell-based
# Protocol: as §1
# [5] = tested on: TA98; experiment: Ames test, strain TA98; format: cell-based
# Protocol: as §1
# [6] = tested on: TA100; experiment: Ames test, strain TA100; format: cell-based
# Protocol: as §1
# [7] = tested on: TA102; experiment: Ames test, strain TA102; format: cell-based
# Protocol: as §1
# [8] = tested on: acute myocardial ischemia in anesthetized dogs; experiment: Acute myocardial ischemia and infarction in anesthetized dogs; format: in vivo, dog
# Protocol: Dogs were divided into three groups: 1, vehicle control group, PEG 1 ml/kg, n=5; 2, dilthiazem group, 5 mg/kg, n=5; 3, IMM-004 group, 30 mg/kg, n=5. The tested drugs were prepared in distilled water at volume of 1 ml/kg. The tested items were administrated via duodenum by animals.
# [9] = tested on: arrhythmia caused by ischemia/reperfusion insults in anaesthetic rats; experiment: Ischemia/reperfusion arrhythmia in anaesthetic rats, intravenous injection; format: in vivo, rat
# Description: (1) Protective Effects of the Tested Compounds on Myocardial Insults in Rats after Intravenously Injection
# Arrhythmic potency induced by myocardial insults was used to assess the potential protective effect of the compounds.
# [10] = Example 1 table, myocardial cell
# [11] = screening of 22 candidate compounds
# [12] = N-BT staining, Dilthiazem 5 mg/kg, IMM-004 30 mg/kg, % according to b137
compound,measurement,setting,value
"O=c1c2cc(F)ccc2[se]n1-c1cccnc1 [IMM-128, 5-fluoro-2-(3-pyridyl)-1,2-benz-isoselenazol-3(2H)-one]",Inhibitory rate of inward INa—Ca (%),[1]; [10],42%
same,Inhibitory rate of outward INa—Ca (%),[1]; [10],44%
same,Inhibitory rate of inward INa—Ca (%),[1]; [11],42%
same,Inhibitory rate of outward INa—Ca (%),[1]; [11],44* %
same,"AAT: arrhythmic occurrence time, Time",[2],22.10 ± 3.49 min
same,VF (ventricular fibrillation) Incidence rate (%),[2],50%
same,VPS (ventricular premature beats) Incidence rate (%),[2],25%
same,VT (ventricular tachycardia) Incidence rate (%),[2],50%
same,mutagenic effect (Ames test),[3],No evidence for a mutagenic effect
same,TA97 +S9,[4]; 0.5 μg/dish,70.00 ± 11.86
same,TA97 −S9,[4]; 0.5 μg/dish,59.33 ± 10.27
same,TA97 +S9,[4]; 5 μg/dish,63.00 ± 31.00
same,TA97 −S9,[4]; 5 μg/dish,52.67 ± 3.21
same,TA97 +S9,[4]; 50 μg/dish,60.33 ± 17.59
same,TA97 −S9,[4]; 50 μg/dish,59.00 ± 3.56
same,TA97 +S9,[4]; 500 μg/dish,78.50 ± 21.50
same,TA97 −S9,[4]; 500 μg/dish,65.33 ± 2.35
same,TA98 +S9,[5]; 0.5 μg/dish,40.67 ± 16.05
same,TA98 −S9,[5]; 0.5 μg/dish,64.00 ± 6.48
same,TA98 +S9,[5]; 5 μg/dish,46.00 ± 3.00
same,TA98 −S9,[5]; 5 μg/dish,69.33 ± 12.81
same,TA98 +S9,[5]; 50 μg/dish,56.00 ± 9.63
same,TA98 −S9,[5]; 50 μg/dish,71.33 ± 12.26
same,TA98 +S9,[5]; 500 μg/dish,31.33 ± 6.24
same,TA98 −S9,[5]; 500 μg/dish,83.67 ± 5.79
same,TA100 +S9,[6]; 0.5 μg/dish,167.33 ± 17.98
same,TA100 −S9,[6]; 0.5 μg/dish,127.33 ± 20.04
same,TA100 +S9,[6]; 5 μg/dish,149.67 ± 19.60
same,TA100 −S9,[6]; 5 μg/dish,116.50 ± 30.50
same,TA100 +S9,[6]; 50 μg/dish,141.33 ± 16.36
same,TA100 −S9,[6]; 50 μg/dish,135.00 ± 14.99
same,TA100 +S9,[6]; 500 μg/dish,107.67 ± 13.47
same,TA100 −S9,[6]; 500 μg/dish,100.00 ± 33.67
same,TA102 +S9,[7]; 0.5 μg/dish,277.33 ± 15.17
same,TA102 −S9,[7]; 0.5 μg/dish,214.67 ± 8.22
same,TA102 +S9,[7]; 5 μg/dish,234.67 ± 80.37
same,TA102 −S9,[7]; 5 μg/dish,270.67 ± 12.04
same,TA102 +S9,[7]; 50 μg/dish,333.00 ± 60.83
same,TA102 −S9,[7]; 50 μg/dish,210.00 ± 31.54
same,TA102 +S9,[7]; 500 μg/dish,274.00 ± 37.98
same,TA102 −S9,[7]; 500 μg/dish,296.00 ± 22.86
"COc1ccc([C@@H]2Sc3ccccc3N(CCN(C)C)C(=O)[C@@H]2OC(C)=O)cc1 [Dilthiazem, reference compound]",blood oxygen concentration,[8]; 5 mg/kg,Significant increase
same,myocardial oxygen consumption,[8]; 5 mg/kg,decrease
same,"severity of myocardial ischemia (Σ-ST), in words","[8]; 5 mg/kg via duodenum, from 90 min, lasted for 180 min after administration",reduced
same,Infarction area/ heart area,[8]; [12],1.54 ± 0.40
same,Infarction area/ventricle area,[8]; [12],3.54 ± 3.74
same,Infarction area mm^2,"[8]; N-BT staining, Dilthiazem 5 mg/kg, IMM-004 30 mg/kg, X ± SD",186.50 ± 21.2*** mm^2
same,"Myocardial infarction size, in words","[8]; N-BT staining, IMM-004 30 mg/kg, dilthiazem 5 mg/kg",significantly reduced
same,"Coronary flows, in words","[8]; after treatment, dilthiazem 5 mg/kg, IMM-004 30 mg/kg",significantly increased
"O=c1c2ccc(Cl)cc2[se]n1-c1ccncc1 [IMM-313, 6-chloro-2-(4-pyridyl)-1,2-benz-isoselenazol-3(2H)-one]",Inhibitory rate of inward INa—Ca (%),[1]; [10],28%
same,Inhibitory rate of outward INa—Ca (%),[1]; [10],50%
same,Inhibitory rate of inward INa—Ca (%),[1]; [11],28%
same,Inhibitory rate of outward INa—Ca (%),[1]; [11],50* %
same,protective effects on myocardial insults,"[2]; 10^−6M, isolated heart",significant protective effects
same,"AAT: arrhythmic occurrence time, Time",[2],1.67 ± 0.70 min
same,VF (ventricular fibrillation) Incidence rate (%),[2],30* %
same,VPS (ventricular premature beats) Incidence rate (%),[2],20* %
same,VT (ventricular tachycardia) Incidence rate (%),[2],30%
same,"incidence and duration of VT, VF, VE / ventricular arrhythmic","[9]; 3 mg/Kg intravenous (femoral vein), rats",no significant effect
same,rats with heart rate irreversibly reduced within 5 min (died at last),"[9]; 3 mg/Kg intravenous, before ligation, 7/17 rats",41.2%
same,mutagenic effect (Ames test),[3],No evidence for a mutagenic effect
same,TA97 +S9,[4]; 0.5 μg/dish,64.67 ± 8.65
same,TA97 −S9,[4]; 0.5 μg/dish,47.33 ± 6.13
same,TA97 +S9,[4]; 5 μg/dish,70.33 ± 4.11
same,TA97 −S9,[4]; 5 μg/dish,38.33 ± 13.09
same,TA97 +S9,[4]; 50 μg/dish,60.00 ± 7.12
same,TA97 −S9,[4]; 50 μg/dish,0
same,TA97 +S9,[4]; 500 μg/dish,0
same,TA97 −S9,[4]; 500 μg/dish,33.33 ± 13.59
same,TA98 +S9,[5]; 0.5 μg/dish,49.33 ± 3.86
same,TA98 −S9,[5]; 0.5 μg/dish,100.50 ± 3.50
same,TA98 +S9,[5]; 5 μg/dish,50.33 ± 5.79
same,TA98 −S9,[5]; 5 μg/dish,86.50 ± 5.50
same,TA98 +S9,[5]; 50 μg/dish,47.33 ± 1.25
same,TA98 −S9,[5]; 50 μg/dish,0
same,TA98 +S9,[5]; 500 μg/dish,0
same,TA98 −S9,[5]; 500 μg/dish,87.67 ± 5.25
same,TA100 +S9,[6]; 0.5 μg/dish,99.33 ± 2.49
same,TA100 −S9,[6]; 0.5 μg/dish,68.67 ± 17.33
same,TA100 +S9,[6]; 5 μg/dish,111.33 ± 7.71
same,TA100 −S9,[6]; 5 μg/dish,45.67 ± 6.65
same,TA100 +S9,[6]; 50 μg/dish,106.00 ± 7.48
same,TA100 −S9,[6]; 50 μg/dish,0
same,TA100 +S9,[6]; 500 μg/dish,0
same,TA100 −S9,[6]; 500 μg/dish,16.5 ± 0.5
same,TA102 +S9,[7]; 0.5 μg/dish,250.00 ± 10.00
same,TA102 −S9,[7]; 0.5 μg/dish,215.33 ± 13.91
same,TA102 +S9,[7]; 5 μg/dish,220.00 ± 28.00
same,TA102 −S9,[7]; 5 μg/dish,211.33 ± 18.35
same,TA102 +S9,[7]; 50 μg/dish,265.33 ± 15.43
same,TA102 −S9,[7]; 50 μg/dish,0
same,TA102 +S9,[7]; 500 μg/dish,0
same,TA102 −S9,[7]; 500 μg/dish,177.67 ± 23.33
